Assay results taken from publication PMC9883482, “TPX2 enhances the transcription factor activation of PXR and enhances the resistance of hepatocellular carcinoma cells to antitumor drugs” (Cell Death & Disease, 2023).
Read-outs that look alike come from different tables or passages of the source.

Assay: Sorafenib metabolism/clearance in cultured cells, LC-MS/MS
Format: in vitro ADME
Conditions: human
Protocol: After incubation with sorafenib was complete, the medium containing sorafenib was discarded and replaced with normal DMEM + FBS for continuous cultures. Cell samples were collected at each time point starting at 0 (when the cell samples were collected immediately after the incubation step/baseline) followed by 4, 8, 12, 24, and 48 h.
For sorafenib-treated samples in cellular experiments, sorafenib processing and extraction of the samples were performed. HCC cell samples were re-suspended in PBS after which the organic solvent acetonitrile at a ratio of 1:1 was added. The samples were then crushed and extracted for about 30 min with vortex shaking. After that step, the samples were centrifuged at 12,000 rpm at 4 °C for about 15 to 20 min. At this time, the samples were separated into cell debris, organic, and water phases. The collected organic phase contained the sample of sorafenib in acetonitrile.
S transition pair was detected using LC–MS/MS: (1) the parent ion was 465 Da and (2) the product ion was 252 Da.
All statistical analyses in the presence work were performed using the GraphPad 8.0 (GraphPad Software Corporation, Armonk, NY, USA). […] For the survival analysis data, the survival curves were analyzed by the log-rank (Mantel–Cox) test to detect the P-value of the survival curve, the median survival time, and the 95% confidence interval (CI). For the co-relationship analysis, the data were analyzed by linear regression to determine the overall trend of a group of data points. […] If the slope was positive, the horizontal coordinate was positively related to the vertical coordinate, and if the slope was negative, the horizontal coordinate was negatively related to the vertical coordinate. For the multi-grouped data, the ordinary one-way analysis of variance (ANOVA) and multiple comparison methods were used. An ANOVA was used to examine whether any difference between groups could be detected. The multiple comparisons (t-test) was used to detect differences between pairs of data.

CNC(=O)c1cc(Oc2ccc(NC(=O)Nc3ccc(Cl)c(C(F)(F)F)c3)cc2)ccn1 [sorafenib]
half-life at 1 μmol/L (HepG2 cells, Control, median (95% CI), read-out: t1/2 values (converted)): 18.9 h
half-life at 1 μmol/L (HepG2 cells, TPX2 overexpression, median (95% CI), read-out: t1/2 values (converted)): 13.7 h
half-life at 1 μmol/L (HepG2 cells, siTPX2, read-out: t1/2 values (converted)): > 24 h
half-life at 1 μmol/L (MHCC97-H cells, Control, median (95% CI), read-out: t1/2 values (converted)): 15.5 h
half-life at 1 μmol/L (MHCC97-H cells, siTPX2, median (95% CI), read-out: t1/2 values (converted)): 36.6 h
half-life at 1 μmol/L (MHCC97-L cells, Control, median (95% CI), read-out: t1/2 values (converted)): 18.7 h
half-life at 1 μmol/L (MHCC97-L cells, TPX2 overexpression, median (95% CI), read-out: t1/2 values (converted)): 11.9 h
